Like-named read-outs stand apart in the source and are kept apart here.

The conditions of series [1]: in diet, diabetic, genetically obese mice; cited from earlier work.
The conditions of series [2]: C57BL/KsJ-db/db mice; cited from earlier work.
The conditions of series [3]: normal individuals, endogenous metabolite of DHEA; cited from earlier work.
A short description of series [4]: Interconversion, absorption and circulation of alpha-ET, beta-ET and ET-dione. To be noted: for oxidation at the C-3 position to ET-dione: orally or parenterally (i.p., i.m. or i.v.). From the text: This is the subject of U.S. application Ser. No. 078,610, filed July 28, 1987 and incorporated herein by reference.
A short description of series [5]: Free alpha-ET blood levels after oral suspensions in eight normal human volunteers (crossover, RIA).
Description: Each subject received all three drugs in randomized order with a one-week wash-out period between doses. Following an overnight fast, subjects received 200 mg of test drug suspended in approximately 6 oz. of apple juice. Blood samples were drawn immediately prior to drug administration and at 15 minutes, 30 minutes, 1, 2, 4, 8, 12 and 24 hours.
For series [6] the following is noted: genetically obese mice, variety of routes; cited from earlier work.
For series [7] the following is noted: genetically obese or diabetic mice; cited from earlier work.
The conditions of series [8]: oral, severely diabetic mammals; cited from earlier work.
Experiment in series [9]: not given
The source holds these as a separate data set.

Series [10] can be described thus: Blood sugar in C57BL/K db/db diabetic mice on ET-dione chow. It counts as in vivo, mouse (C57BL/K db/db). Also noted: Blood Sugar: unit not given here. From the text:
(§1) Eighteen C57BL/K db/db mice were divided into three groups of 5 and one group (control) of 3. This mouse strain is more diabetic and more resistant to weight gain reduction than the mouse species used in Example 1. The mice were weighed and then permitted to consume a commercially-available chow and water ad librium over a six-week study period. At the end of each week, the mice were reweighed and their blood sugar determined. The chow supplied to three of the groups had ET-dione admixed therewith at either a 0.4, 0.6 or 0 8% concentration.

A short description of series [11]: Body weight in C57BL/K db/db diabetic mice on ET-dione chow. It counts as in vivo, mouse (C57BL/K db/db). To be noted: for 6 wk gain: 6 weeks.
Description: as §1

The conditions of series [12]: rat, before feeding program.
Description: Food consumption and body weight were measured weekly. […] Liver weight (absolute and % of body weight), total cholesterol, % of esterified cholesterol and triglycerides in the liver were also determined. In addition, epididymal fat pad weights were measured.
For series [13] the following is noted: A^vy /A mice, 0.4% ET-dione.
Description: Inhibition of the development of obesity was studied in two mutant mouse strains used for diabetes evaluation: C57BL/6, C3HeB/FeJ (A^vy /A). […] C57BL/6 mice (Jackson Laboratories, Bar Harbor, ME) display the genetic obesity syndrome markers obese (ob) and diabetes (db) A^vy /A mice (Jackson Laboratories, Bar Harbor, ME) are characterized by mild obesity and an enhanced susceptibility to certain tumors.
days during week 4 and were then returned to the 0.4% dose level.

For the compound `C[C@]12CC[C@@H](O)C[C@H]1CC[C@@H]1[C@@H]2CC[C@]2(C)C(=O)CC[C@@H]12` [Alpha-ET, 5-beta-androstan-3-alpha-ol-17-one], in series [1], the anti-obesity properties entry was “effective both in preventing and in arresting the development of obesity”. Moreover, in [2], the Blood Sugar entry was “reduced blood sugar”, the “effectiveness vs DHEA in preventing the development of diabetes” value (“effectiveness vs DHEA” below) is “four time more effective than DHEA”, the plasma insulin concentrations result was “increased plasma insulin concentrations” and the “protective effect on the pancreas (granules in islet beta cells)” value is reported as “protective effect on the pancreas”. Moreover, the urinary excretion in series [3] is on record as 3-5 mg per day. The “oxidation at the C-3 position to ET-dione” value in series [4] is on record as “rapidly oxidized at the C-3 position to ET-dione”. The “levels of conjugated alpha-ET relative to free alpha-ET” value in series [5] (30 minutes post-administration) is on record as 2-5 times. Besides, for the setting “0.2% in diet, day 28”, the “% W vs Control Day 28” value is recorded as -9.8%.

In the case of `C[C@]12CC[C@H](O)C[C@H]1CC[C@@H]1[C@@H]2CC[C@]2(C)C(=O)CC[C@@H]12` [Beta-ET, 5-beta-androstan-3-beta-ol-17-one], the anti-obesity properties entry in [1] was “effective both in preventing and in arresting the development of obesity”. Moreover, in series [2], the Blood Sugar entry is recorded as “reduced blood sugar”, the “effectiveness vs DHEA” value is reported as “four time more effective than DHEA”, the plasma insulin concentrations result is on record as “increased plasma insulin concentrations” and the “protective effect on the pancreas (granules in islet beta cells)” value was “protective effect on the pancreas”. For the same compound, in series [4], the “oxidation at the C-3 position to ET-dione” value is reported as “rapidly oxidized at the C-3 position to ET-dione”.

For `C[C@]12CC[C@H](O)CC1=CC[C@@H]1[C@@H]2CC[C@]2(C)C(=O)CC[C@@H]12` [DHEA, 3-beta-hydroxyandrost-5-en-17-one], the “rate of weight gain” value in [6] is on record as “decreased the rate of weight gain”. Moreover, the “preventive effect on the development of diabetes” value in [7] is “marked preventive effect on the development of diabetes”. Further, in series [8], the glucose tolerance entry was “improved glucose tolerance” and the hyperglycemia entry is “restored hyperglycemia to normal levels”.

On to `C[C@]12CCC(=O)C[C@H]1CC[C@@H]1[C@@H]2CC[C@]2(C)C(=O)CC[C@@H]12` [ET-dione, 5-beta-androstanedione], for which the “Food consumption, Av. Wks 1-4” value in [9] (0.4% in diet, average weeks 1-4) turned out to be 22.0 g/day. Moreover, in series [9] (second rat study), the “effectiveness in reducing food consumption relative to alpha-ET” value is reported as “equally effective as alpha-ET in reducing food consumption”. In [4] (animal and human pharmacokinetic data), the “blood levels of free alpha-ET” value was “increased blood levels of free alpha-ET”. For the same compound, the “Blood Sugar” value in series [10] (0.4% ET-dione in chow, week 1) was 149 ± 3.9; in [10] (0.4% ET-dione in chow, week 2) it was 156 ± 8.3; in series [10] (0.4% ET-dione in chow, week 3) it was 151 ± 6.3; in [10] (0.4% ET-dione in chow, week 4), 148 ± 5.6; in [10] (0.4% ET-dione in chow, week 5) it was 148 ± 17.2; in [10] (0.4% ET-dione in chow, week 6), 168 ± 24.5. Besides, the “Blood Sugar” value in series [10] (0.6% ET-dione in chow, week 1) was 143 ± 9.0; in series [10] (0.6% ET-dione in chow, week 2), 124 ± 10.7; in series [10] (0.6% ET-dione in chow, week 3), 151 ± 11.5; in series [10] (0.6% ET-dione in chow, week 4) it was 152 ± 3.7; in series [10] (0.6% ET-dione in chow, week 5), 159 ± 17; in series [10] (0.6% ET-dione in chow, week 6), 195 ± 37. Also, the “Blood Sugar” value was 128 ± 5.0 in [10] (0.8% ET-dione in chow, week 1); 126 ± 6.8 in series [10] (0.8% ET-dione in chow, week 2); 147 ± 4.2 in series [10] (0.8% ET-dione in chow, week 3); 148 ± 3.7 in [10] (0.8% ET-dione in chow, week 4); 137 ± 6.7 in series [10] (0.8% ET-dione in chow, week 5); 184 ± 31 in series [10] (0.8% ET-dione in chow, week 6). Further, the “blood sugar level vs untreated mice, in words” value in [10] (ET-dione in chow, 0.4-0.8%) is listed as “roughly half that of the untreated mice”. Besides, the values for the 6 wk gain in [11] (0.4% ET-dione in chow), in [11] (0.6% ET-dione in chow) and in series [11] (0.8% ET-dione in chow) were 26.1 g, 24.1 g and 21.7 g, respectively. Further, the “Body Weight” value in series [11] (0.4% ET-dione in chow, start) is on record as 19.6 ± 1.8 g; in series [11] (0.4% ET-dione in chow, week 1), 26.7 ± 1.7 g; in series [11] (0.4% ET-dione in chow, week 2), 29.8 ± 1.2 g; in series [11] (0.4% ET-dione in chow, week 3), 34.4 ± 0.83 g; in series [11] (0.4% ET-dione in chow, week 4), 36.5 ± 0.8 g; in series [11] (0.4% ET-dione in chow, week 5) it was 42.2 ± 1.0 g. The “Body Weight” value turned out to be 45.7 ± 0.7 g in series [11] (0.4% ET-dione in chow, week 6); 18.1 ± 1.6 g in [11] (0.6% ET-dione in chow, start); 23.7 ± 1.9 g in series [11] (0.6% ET-dione in chow, week 1); 27.3 ± 1.8 g in series [11] (0.6% ET-dione in chow, week 2); 31.9 ± 1.9 g in series [11] (0.6% ET-dione in chow, week 3); 34.7 ± 1.9 g in [11] (0.6% ET-dione in chow, week 4). Also, the “Body Weight” value in series [11] (0.6% ET-dione in chow, week 5) is 39.1 ± 1.6 g; in series [11] (0.6% ET-dione in chow, week 6), 42.2 ± 0.9 g; in series [11] (0.8% ET-dione in chow, start) it was 18.1 ± 1.0 g; in series [11] (0.8% ET-dione in chow, week 1), 23.3 ± 0.7 g; in [11] (0.8% ET-dione in chow, week 2), 26.4 ± 0.6 g; in series [11] (0.8% ET-dione in chow, week 3), 31.1 ± 0.76 g. The “Body Weight” value is given as 33.5 ± 0.91 g in series [11] (0.8% ET-dione in chow, week 4); 37.0 ± 0.9 g in series [11] (0.8% ET-dione in chow, week 5); 39.8 ± 1.2 g in series [11] (0.8% ET-dione in chow, week 6). Besides, in series [11] (ET-dione in chow, 0.4-0.8%), the “six-week weight gain, in words” value was “reduced the six-week weight gain”. For the same compound, in series [12], the “RIA value for alpha-ET, initial” value is “approximately 40 nanograms per deciliter”. Moreover, the “effectiveness vs 0.1% alpha- and beta-ET, in words” value in series [13] is “comparable in effectiveness to 0.1% alpha- and beta-ET”. Moreover, the “blood levels of alpha-ET over equivalent dosages of alpha-ET” value in [5] is “significantly enhanced blood levels of alpha-ET”. For the same compound, in series [5] (15 minutes to approximately 1 hour after administration), the “amounts of alpha-ET in blood, in words” value is recorded as “significantly higher amounts of alpha-ET”. In addition, in series [5] (four hours post-administration), the “free alpha-ET levels, in words, vs alpha-ET or beta-ET administration” value is listed as “significantly higher than from alpha-ET or beta-ET administration”. Under “all concentrations tested”, the “effectiveness on weight gain relative to alpha-ET” value is reported as “almost twice as effective as alpha-ET”. Moreover, the “effectiveness relative to alpha-ET (general statement)” value (rat, in vivo) is recorded as “equally or, in some cases, almost twice as effective”.

For the compound `C[C@]12CC[C@@H](O)C[C@@H]1CC[C@@H]1[C@@H]2CC[C@]2(C)C(=O)CC[C@@H]12` [androsterone, reference compound], the “effectiveness vs DHEA” value in series [2] was “not”.

As for `C[C@]12CC[C@H](O)C[C@@H]1CC[C@@H]1[C@@H]2CC[C@]2(C)C(=O)CC[C@@H]12` [epiandrosterone, reference compound], the “effectiveness vs DHEA” value in [2] is on record as “not”.

The values are drawn from patent US5006517A, “Treatment of Prader-Willi syndrome” (Progenics, Inc., priority 1989, dated 1991).
